Data published in PubChem BioAssay (NCI).
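The compound was tested at five concentrations on cells cultured in 96-well plates, with a 48-hour exposure period. GI50 = concentration required for 50% inhibition of growth. TGI is the concentration that stops growth completely.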

Key:
Test in all cases: NCI anticancer screen, dose series, 48 h
HOP-92 NSCLC = system: HOP-92 NSCLC
UO-31 renal = system: UO-31 renal
OVCAR-3 ovarian = system: OVCAR-3 ovarian
IGROV1 ovarian = system: IGROV1 ovarian
EKVX NSCLC = system: EKVX NSCLC
RPMI-8226 leukemia = system: RPMI-8226 leukemia
SK-MEL-5 melanoma = system: SK-MEL-5 melanoma
ACHN renal = system: ACHN renal
SN12C renal = system: SN12C renal
SNB-19 CNS = system: SNB-19 CNS
MDA-MB-435 = system: MDA-MB-435
HT29 colon = system: HT29 colon
SNB-75 CNS = system: SNB-75 CNS
M14 melanoma = system: M14 melanoma
COLO 205 colon = system: COLO 205 colon
NCI-H522 lung = system: NCI-H522 lung
HCC-2998 colon = system: HCC-2998 colon
T-47D breast = system: T-47D breast
MCF7 breast = system: MCF7 breast
OVCAR-5 ovarian = system: OVCAR-5 ovarian
MALME-3M melanoma = system: MALME-3M melanoma
MDA-MB-231 breast = system: MDA-MB-231 breast
NCI-H23 lung = system: NCI-H23 lung
CAKI-1 renal = system: CAKI-1 renal
SK-MEL-28 melanoma = system: SK-MEL-28 melanoma
UACC-62 melanoma = system: UACC-62 melanoma
A549 NSCLC = system: A549 NSCLC
MOLT-4 leukemia = system: MOLT-4 leukemia
SR leukemia = system: SR leukemia
RXF 393 renal = system: RXF 393 renal
NCI-H226 lung = system: NCI-H226 lung
SF-268 CNS = system: SF-268 CNS
LOX IMVI melanoma = system: LOX IMVI melanoma
HL-60(TB) leukemia = system: HL-60(TB) leukemia
K-562 leukemia = system: K-562 leukemia
BT-549 breast = system: BT-549 breast
NCI-H460 lung = system: NCI-H460 lung
NCI/ADR-RES ovarian = system: NCI/ADR-RES ovarian
UACC-257 melanoma = system: UACC-257 melanoma
TK-10 renal = system: TK-10 renal
SK-OV-3 ovarian = system: SK-OV-3 ovarian
SW-620 colon = system: SW-620 colon
SF-539 CNS = system: SF-539 CNS
DU-145 prostate = system: DU-145 prostate
HCT-15 colon = system: HCT-15 colon
HCT-116 colon = system: HCT-116 colon
CCRF-CEM leukemia = system: CCRF-CEM leukemia
HOP-62 NSCLC = system: HOP-62 NSCLC
SF-295 CNS = system: SF-295 CNS
KM12 colon = system: KM12 colon
HS 578T breast = system: HS 578T breast
OVCAR-4 ovarian = system: OVCAR-4 ovarian
786-0 renal = system: 786-0 renal
OVCAR-8 ovarian = system: OVCAR-8 ovarian
U251 CNS = system: U251 CNS
SK-MEL-2 melanoma = system: SK-MEL-2 melanoma
PC-3 prostate = system: PC-3 prostate
A498 renal = system: A498 renal
MDA-N = system: MDA-N

COc1cc(C2CC(c3ccccc3)=NN2C(C)=O)cc(OC)c1OC (stereo unspecified)
GI50 (HOP-92 NSCLC): 32.9 µM | TGI (HOP-92 NSCLC): > 100 µM | GI50 (UO-31 renal): 7.09 µM | TGI (UO-31 renal): > 100 µM | GI50 (OVCAR-3 ovarian): 2.11 µM | TGI (OVCAR-3 ovarian): 6.52 µM | GI50 (IGROV1 ovarian): 4.66 µM | TGI (IGROV1 ovarian): > 100 µM | GI50 (EKVX NSCLC): 6.41 µM | TGI (EKVX NSCLC): > 100 µM | GI50 (RPMI-8226 leukemia): 2.56 µM | TGI (RPMI-8226 leukemia): > 27.7 µM | GI50 (SK-MEL-5 melanoma): 2.87 µM | TGI (SK-MEL-5 melanoma): > 100 µM | GI50 (ACHN renal): 5.88 µM | TGI (ACHN renal): > 100 µM | GI50 (SN12C renal): 5.23 µM | TGI (SN12C renal): > 100 µM | GI50 (SNB-19 CNS): 5.63 µM | TGI (SNB-19 CNS): > 100 µM | GI50 (MDA-MB-435): 0.428 µM | TGI (MDA-MB-435): 8.27 µM | GI50 (HT29 colon): 2.57 µM | TGI (HT29 colon): > 100 µM | GI50 (SNB-75 CNS): 1.74 µM | TGI (SNB-75 CNS): 13.3 µM | GI50 (M14 melanoma): 2.47 µM | TGI (M14 melanoma): > 34.2 µM | GI50 (COLO 205 colon): 2.92 µM | TGI (COLO 205 colon): > 41 µM | GI50 (NCI-H522 lung): 5.53 µM | TGI (NCI-H522 lung): > 100 µM | GI50 (HCC-2998 colon): 6.4 µM | TGI (HCC-2998 colon): > 74 µM | GI50 (T-47D breast): 5.33 µM | TGI (T-47D breast): > 100 µM | GI50 (MCF7 breast): 2.26 µM | TGI (MCF7 breast): > 100 µM | GI50 (OVCAR-5 ovarian): 70.7 µM | TGI (OVCAR-5 ovarian): > 100 µM | GI50 (MALME-3M melanoma): 13 µM | TGI (MALME-3M melanoma): > 100 µM | GI50 (MDA-MB-231 breast): 7.68 µM | TGI (MDA-MB-231 breast): > 100 µM | GI50 (NCI-H23 lung): 5.91 µM | TGI (NCI-H23 lung): > 100 µM | GI50 (CAKI-1 renal): 2.45 µM | TGI (CAKI-1 renal): > 100 µM | GI50 (SK-MEL-28 melanoma): 6.48 µM | TGI (SK-MEL-28 melanoma): > 100 µM | GI50 (UACC-62 melanoma): 4.2 µM | TGI (UACC-62 melanoma): > 100 µM | GI50 (A549 NSCLC): 6.63 µM | TGI (A549 NSCLC): > 100 µM | GI50 (MOLT-4 leukemia): 5.5 µM | TGI (MOLT-4 leukemia): > 100 µM | GI50 (SR leukemia): 0.996 µM | TGI (SR leukemia): > 100 µM | GI50 (RXF 393 renal): 4.14 µM | TGI (RXF 393 renal): > 48.2 µM | GI50 (NCI-H226 lung): 6.8 µM | TGI (NCI-H226 lung): > 100 µM | GI50 (SF-268 CNS): 5.37 µM | TGI (SF-268 CNS): > 100 µM | GI50 (LOX IMVI melanoma): 6.38 µM | TGI (LOX IMVI melanoma): > 100 µM | GI50 (HL-60(TB) leukemia): 3.26 µM | TGI (HL-60(TB) leukemia): > 31.7 µM | GI50 (K-562 leukemia): 2.77 µM | TGI (K-562 leukemia): > 100 µM | GI50 (BT-549 breast): 6.37 µM | TGI (BT-549 breast): > 100 µM | GI50 (NCI-H460 lung): 3.55 µM | TGI (NCI-H460 lung): > 51 µM | GI50 (NCI/ADR-RES ovarian): 2.8 µM | TGI (NCI/ADR-RES ovarian): > 26.1 µM | GI50 (UACC-257 melanoma): > 100 µM | TGI (UACC-257 melanoma): > 100 µM | GI50 (TK-10 renal): > 46.9 µM | TGI (TK-10 renal): > 100 µM | GI50 (SK-OV-3 ovarian): 3.91 µM | TGI (SK-OV-3 ovarian): > 100 µM | GI50 (SW-620 colon): 3.04 µM | TGI (SW-620 colon): > 100 µM | GI50 (SF-539 CNS): 3.06 µM | TGI (SF-539 CNS): 17.8 µM | GI50 (DU-145 prostate): 5.26 µM | TGI (DU-145 prostate): 77.3 µM | GI50 (HCT-15 colon): 2.48 µM | TGI (HCT-15 colon): > 100 µM | GI50 (HCT-116 colon): 2.83 µM | TGI (HCT-116 colon): > 100 µM | GI50 (CCRF-CEM leukemia): 3.09 µM | TGI (CCRF-CEM leukemia): > 100 µM | GI50 (HOP-62 NSCLC): 5.59 µM | TGI (HOP-62 NSCLC): > 100 µM | GI50 (SF-295 CNS): 0.576 µM | TGI (SF-295 CNS): 4.15 µM | GI50 (KM12 colon): 1.42 µM | TGI (KM12 colon): > 100 µM | GI50 (HS 578T breast): 2.57 µM | TGI (HS 578T breast): 34.6 µM | GI50 (OVCAR-4 ovarian): 11.7 µM | TGI (OVCAR-4 ovarian): > 100 µM | GI50 (786-0 renal): 5.93 µM | TGI (786-0 renal): > 100 µM | GI50 (OVCAR-8 ovarian): 7.43 µM | TGI (OVCAR-8 ovarian): > 100 µM | GI50 (U251 CNS): 3.93 µM | TGI (U251 CNS): > 100 µM | GI50 (SK-MEL-2 melanoma): 4.02 µM | TGI (SK-MEL-2 melanoma): > 100 µM | GI50 (PC-3 prostate): 3.97 µM | TGI (PC-3 prostate): > 100 µM | GI50 (A498 renal): 4.79 µM | TGI (A498 renal): > 100 µM

Cc1ccc2[nH]c3c(c2c1)CCC/C3=N/N=C(N)N
TGI (HOP-92 NSCLC): 6.5 µM | TGI (OVCAR-3 ovarian): 8.21 µM | TGI (IGROV1 ovarian): 3.54 µM | TGI (EKVX NSCLC): 6.78 µM | TGI (RPMI-8226 leukemia): 5.12 µM | TGI (SK-MEL-5 melanoma): 3.4 µM | TGI (ACHN renal): 3.64 µM | TGI (MDA-N): 2.89 µM | TGI (SN12C renal): 3.05 µM | TGI (SNB-19 CNS): 4.76 µM | TGI (HT29 colon): 3.39 µM | TGI (SNB-75 CNS): 4.54 µM | TGI (M14 melanoma): 3.15 µM | TGI (COLO 205 colon): 3.13 µM | TGI (HCC-2998 colon): 3.3 µM | TGI (OVCAR-5 ovarian): 5.53 µM | TGI (MALME-3M melanoma): 5.45 µM | TGI (MDA-MB-231 breast): 3.04 µM | TGI (NCI-H23 lung): 9.97 µM | TGI (CAKI-1 renal): 2.94 µM | TGI (UACC-62 melanoma): 4.73 µM | TGI (SR leukemia): 5.64 µM | TGI (RXF 393 renal): 3.95 µM | TGI (NCI-H226 lung): 10.1 µM | TGI (LOX IMVI melanoma): 4.39 µM | TGI (HL-60(TB) leukemia): > 100 µM | TGI (K-562 leukemia): 5 µM | TGI (BT-549 breast): 41.1 µM | TGI (NCI-H460 lung): 2.89 µM | TGI (UACC-257 melanoma): 7.41 µM | TGI (SK-OV-3 ovarian): 38.3 µM | TGI (SW-620 colon): > 100 µM | TGI (DU-145 prostate): 3.34 µM | TGI (KM12 colon): 3.16 µM | TGI (OVCAR-4 ovarian): 11.4 µM | TGI (OVCAR-8 ovarian): 4.49 µM | TGI (U251 CNS): 4.72 µM | TGI (SK-MEL-2 melanoma): 3.41 µM | TGI (PC-3 prostate): 10.2 µM | TGI (A498 renal): 45.2 µM
